Assay results reported in patent US10021880B2, “Diarylimidazole compound and harmful organism control agent” (Nippon Soda Co., Ltd., priority 2014, dated 2018).

How the values were obtained:
Pseudaletia separate = test: Efficacy test against Pseudaletia separate (maize leaf dip); format: in vivo; settings: foliar, 144 h, maize leaves soaked 30 seconds, second-instar larvae, after 6 days, 25° C., read-out: insect mortality rate against Pseudaletia separate
Description: (§1) 5 parts of the compound of the present invention, 93.6 parts of dimethyl formamide and 1.4 parts of polyoxyethylene alkylaryl ether were mixed and dissolved to obtain emulsion (I) including 5% of active ingredient.
(§2) Emulsion (I) was diluted with water so that the concentration of the compound of the present invention reaches 125 ppm. Maize leaves were soaked in the diluted liquid for 30 seconds. Then the maize leaves were put on Petri dishes, followed by inoculating 5 second-instar larvae of Pseudaletia separate. The Petri dishes were placed in a temperature-controlled room with a temperature of 25° C. and humidity of 60%. Mortality was investigated after 6 days were passed, and the insect mortality rate was calculated. The test was repeated twice.

Spodoptera litura = test: Efficacy test against Spodoptera litura (cabbage leaf dip); format: in vivo; settings: foliar, 144 h, cabbage leaves soaked 30 seconds, second-instar larvae, after 6 days, 25° C., read-out: insect mortality rate against Spodoptera litura
Description: as §1
as §2, with “Emulation (I)” for “Emulsion (I)”, “ppm. Cabbage” for “ppm. Maize”, “the cabbage” for “the maize”, “of Spodoptera litura.” for “of Pseudaletia separate.”, “temperature was” for “temperature of”

Plutella xylostella = test: Efficacy test against Plutella xylostella (cabbage leaf dip); format: in vivo; settings: foliar, 72 h, cabbage leaves soaked 30 seconds, second-instar larvae, after 3 days, 25° C., read-out: mortality rate against Plutella xylostella
Description: as §1
as §2, with “ppm. Cabbage” for “ppm. Maize”, “the cabbage” for “the maize”, “of Plutella xylostella.” for “of Pseudaletia separate.”, “temperature was” for “temperature of”, “after 3” for “after 6”

Aphis gossypii [1] = test: Efficacy test against Aphis gossypii (spray on cucumber seedlings); format: in vivo; settings: sprayed on cucumber seedlings inoculated with nymphs, 4 days after spraying, read-out: mortality rate against Aphis gossypii
Description: as §1
Cucumber plants were raised in No. 3 pots and the first true leaves were inoculated with nymphs of Aphis gossypii. Emulation (I) was diluted with water so that the concentration of the compound of the present invention reaches 125 ppm, followed by spraying the diluted liquid on the cucumber seedlings. The cucumber seedlings were then placed in a temperature-controlled room with a temperature of 25° C. and humidity of 60%. Mortality was investigated after 4 days were passed from the spraying, and the insect mortality rate of Aphis gossypii was calculated. The test was repeated twice.

Tetranychus kanzawai = test: Efficacy test against Tetranychus kanzawai (spray on kidney bean seedlings); format: in vivo; settings: 240 h, sprayed on kidney bean seedlings, adult mortality 10 days after spraying, 25° C., humidity 65%, read-out: mortality rate against Tetranychus kanzawai
Description: as §1
Kidney bean plants were raised in No. 3 pots and the primary leaves were inoculated with 10 adult female Tetranychus kanzawai. Emulation (I) was diluted with water so that the concentration of the compound of the present invention reaches 125 ppm, followed by spraying the diluted liquid on the kidney bean seedlings. The kidney bean seedlings were then placed in a temperature-controlled room with a temperature of 25° C. and humidity of 65%. Mortality of the adult Tetranychus kanzawai was investigated after 10 days were passed from the spraying, and the insect mortality rate of Tetranychus kanzawai was calculated. The test was repeated twice.

Musca domestica = test: Efficacy test against Musca domestica (treated cube sugar); format: in vivo; settings: 100 ppm on cube sugar, after 24 hours, 25° C.
Description: The compound of the present invention was diluted with acetone, followed by dropping to 1 g of cube sugar so that the concentration reaches to 100 ppm. The cube sugar was placed in a plastic cup and 10 adult female Musca domestica were released therein, followed by putting the lid on the cup. The cup was kept at 25° C., the mortality was investigated after 24 hours was passed from the releasing of Musca domestica and the insect mortality rate was calculated by the following equation. The test was repeated twice. Insect mortality rate (%)=(number of dead insects/number of sample insects)×100

Culex pipiens = test: Efficacy test against Culex pipiens (larvae in chemical solution); format: in vivo; settings: 2 ppm in water, after 1 day
Description: as §1
Emulsion (I) was diluted with water so that the concentration of the compound of the present invention reaches 2 ppm to prepare a chemical solution for test. 20 first-instar larvae of Culex pipiens were released into 100 ml of the chemical solution for test, then the number of dead insects was calculated after 1 day was passed, and the insect mortality rate was calculated by the following equation. The test was repeated twice. Insect mortality rate (%)=(number of dead insects/number of sample insects)×100

Aphis gossypii [2] = test: Efficacy test against Aphis gossypii (root-dipping test); format: in vivo; settings: 8 ppm in hydroponic liquid, cucumber, nymphs, after 6 days
Description: as §1
Cucumber plants raised in No. 3 pots were pulled out from the pots, then the soil attached to the roots was washed with tap water, followed by hydroponic-cultivating the cucumber plants by soaking the roots in tap water. The cucumber seedlings were inoculated with nymphs of Aphis gossypii. Emulsion (I) was diluted with water to obtain a diluted liquid with a concentration of 8 ppm of the compound of the present invention. The tap water was replaced with the diluted liquid, and then the hydrophonic-cultivation was continued in a temperature-controlled room with a temperature was 25° C. and humidity of 60%.
After 6 days were passed from the hydrophonic-cultivation in the diluted liquid, mortality of Aphis gossypii was investigated and the insect mortality rate was calculated. The test was repeated twice.

## Cn1c(-c2ccc(C(F)(F)F)cc2)c[n+]([O-])c1-c1ccc(C(F)(F)F)cc1F
other
  melting point: 229 to 231 °C

## CCS(=O)(=O)c1cc(C(F)(F)F)ccc1-c1ncc(-c2ccc(C(F)(F)F)cc2)n1C [Compound 1-3, 2-(2-(ethylsulfonyl)-4-(trifluoromethyl)phenyl)-1-methyl-5-(4-(trifluoromethyl)phenyl)-1H-imidazole]
Pseudaletia separate
  mortality at 125 ppm: ≥ 80%
Spodoptera litura
  mortality at 125 ppm: ≥ 80%
Plutella xylostella
  mortality at 125 ppm: ≥ 80%
Aphis gossypii [1]
  mortality at 125 ppm: ≥ 80%

## Cn1c(-c2ccc(C(F)(F)F)cc2)cnc1-c1ccc(C(F)(F)F)cc1F [Compound 1-4, 2-(2-fluoro-4-(trifluoromethyl)phenyl)-1-methyl-5-(4-(trifluoromethyl)phenyl)-1H-imidazole]
Tetranychus kanzawai
  mortality at 125 ppm: ≥ 90%

## CCSc1cc(C(F)(F)F)ccc1-c1ncc(-c2ccc(C(F)(F)F)cc2)n1C [Compound 1-7, 2-(2-(ethylsulfanyl)-4-(trifluoromethyl)phenyl)-1-methyl-5-(4-(trifluoromethyl)phenyl)-1H-imidazole]
Pseudaletia separate
  mortality at 125 ppm: ≥ 80%
Spodoptera litura
  mortality at 125 ppm: ≥ 80%
Plutella xylostella
  mortality at 125 ppm: ≥ 80%

## CCS(=O)(=O)c1cc(C(F)(F)F)ccc1-c1ncc(-c2ccc(OC(F)(F)F)cc2)n1C [Compound 1-35]
Musca domestica
  insect mortality rate against the adult female Musca domestica: 100%
Culex pipiens
  insect mortality rate against the first-instar larvae of Culex pipiens: 100%

## CCS(=O)(=O)c1cnccc1-c1ncc(-c2ccc(C(F)(F)F)cc2)n1C [Compound 3-1]
Aphis gossypii [2]
  insect mortality rate (Aphis gossypii, root-dipping test): ≥ 80%
